Experimental data: PubChem BioAssay (NCI)
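Test compounds were applied to cells in 96-well plates for 48 hours at 5 doses. GI50 marks 50% less growth. TGI: concentration producing complete growth inhibition.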

Legend:
Assay in all cases: NCI anticancer screen, dose series, 48 h
SF-295 CNS = system: SF-295 CNS
OVCAR-3 ovarian = system: OVCAR-3 ovarian
T-47D breast = system: T-47D breast
SNB-75 CNS = system: SNB-75 CNS
SF-268 CNS = system: SF-268 CNS
DU-145 prostate = system: DU-145 prostate
RPMI-8226 leukemia = system: RPMI-8226 leukemia
NCI-H23 lung = system: NCI-H23 lung
HS 578T breast = system: HS 578T breast
MCF7 breast = system: MCF7 breast

| Structure (SMILES) | GI50 (SF-295 CNS) [µM] | TGI (SF-295 CNS) [µM] | GI50 (OVCAR-3 ovarian) [µM] | TGI (OVCAR-3 ovarian) [µM] | GI50 (T-47D breast) [µM] | TGI (T-47D breast) [µM] | GI50 (SNB-75 CNS) [µM] | TGI (SNB-75 CNS) [µM] | GI50 (SF-268 CNS) [µM] | TGI (SF-268 CNS) [µM] | GI50 (DU-145 prostate) [µM] | TGI (DU-145 prostate) [µM] | GI50 (RPMI-8226 leukemia) [µM] | TGI (RPMI-8226 leukemia) [µM] | GI50 (NCI-H23 lung) [µM] | TGI (NCI-H23 lung) [µM] | GI50 (HS 578T breast) [µM] | TGI (HS 578T breast) [µM] | GI50 (MCF7 breast) [µM] | TGI (MCF7 breast) [µM] |
| --- | --- | --- | --- | --- | --- | --- | --- | --- | --- | --- | --- | --- | --- | --- | --- | --- | --- | --- | --- | --- |
| CC(C)=CCC/C(C)=C/CC/C(C)=C/CSC[C@H](NC(=O)CCCCCN1CCN(C)CC1)C(=O)NC1CCCCCC1 | 1.75 | 3.38 | 2.06 | 4.1 | 2.22 | 6.45 | 1.53 | 4.22 | 2.02 | 4.03 | 1.93 | 3.52 | 1.98 | 4.67 | 3.01 | 8.78 | 1.95 | 4.53 | 2.12 | 4.79 |
| Cn1cc(C2=C(c3ccsc3)C(=O)NC2=O)c2ccccc21 | > 25 | > 25 | 17.2 | > 25 | 7.97 | > 25 | 1.07 | > 25 | > 25 | > 25 | > 25 | > 25 | > 25 | > 25 | > 25 | > 25 | > 25 | > 25 | 1.58 | > 25 |
| CN1C(=O)C(c2c[nH]c3ccccc23)=C(c2c[nH]c3ccccc23)C1=O | 4.48 | 11.8 | 7.03 | > 25 | 6.57 | > 25 | 4.26 | > 25 | 7.27 | > 25 | 9.38 | > 25 | 6.84 | 25 | 6.61 | > 25 | 5.18 | 21.3 | 5.24 | > 24.1 |
| CC1=C(CCCOC(=O)[C@H](N)CC(C)C)C2=C(C)C3(CC3)[C@@](C)(O)C(=O)C2=C1 | 2.19 | > 31.2 | 2.31 | 7.6 | 1.84 | 6.53 | 1.34 | 3.05 | 0.736 | > 47.2 | 0.392 | > 100 | 21.2 | 57.1 | 0.367 | 3.23 | 5.3 | 43.8 | 2.73 | > 87.1 |
| C/C(=C\C(=O)O[C@H]1[C@@H]2[C@H](C)CC[C@H]2[C@]2(C)O[C@@]1(C1CCCCC1)C[C@H]2OC(=O)CO)c1ccccc1 | 6.08 | 11.7 | 7.69 | 13.9 | 5.44 | 12.1 | 0.331 | 7.21 | 0.2 | 8.47 | 7.01 | 12.6 | 7.2 | 16.6 | 6.87 | 13.9 | 0.0101 | 0.0295 | 5.4 | 11.9 |
| O=C1C=C(Nc2ccccc2)c2ccccc2C1=O | 1.9 | 3.5 | 1.96 | 5.27 | 3.17 | 9.88 | 1.32 | 2.67 | 2.67 | 8.71 | 1.84 | 3.29 | 2.24 | 7.49 | 1.98 | 4.91 | 2.57 | 6.32 | 1.88 | 4.3 |
| CC1CCCCCC(=O)c2c(O)cc(O)cc2CC(=O)O1 (stereo not given) |  | > 100 |  | > 100 |  | > 100 |  | > 100 |  | > 100 |  | > 100 |  | > 100 |  | > 100 |  | > 100 |  | > 100 |
| CS(=O)(=O)OCCN(CCOS(C)(=O)=O)c1ccc(C=Nc2ccc(-c3csc(COc4ccccc4)n3)cc2)cc1 |  | 17.8 |  | 15.3 |  | > 51.8 |  | 11.6 |  | 14.6 |  | 14.2 |  | 67.5 |  | 14 |  | > 53.1 |  | 81.8 |
| O=S(=O)(NCCCNc1cc(-c2cn(-c3ccccc3)nc2-c2cccc(O)c2)ccn1)c1ccc(C(F)(F)F)cc1 | 1.79 | 3.64 | 1.92 | 4.03 | 2.49 | 7.08 | 1.45 | 5.06 | 1.85 | 4.95 | 2.65 | 8.11 | 1.66 | 4.82 | 1.65 | 3.94 | 1.46 | 5.77 | 2.11 | 6.58 |
